Consider 55 compounds from BindingDB's records for doi:10.7270/Q2Z31X54 (Burnham Center For Chemical Genomics, 2011).

Some results are limits rather than exact numbers.

For this assay, the target named is T1, Endoribonuclease toxin MazF (Escherichia coli (strain K12), UniProt P0AE70).
T1 sequence (P0AE70 whole entry): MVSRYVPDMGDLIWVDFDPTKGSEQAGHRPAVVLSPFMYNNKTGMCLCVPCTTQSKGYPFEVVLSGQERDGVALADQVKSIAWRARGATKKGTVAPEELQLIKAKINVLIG
Nature of the assay: MazF toxin RNase activators, dose response, biochemical, fluorescence, single-stranded RNA substrate, uHTS hits (AID 588481).

On to `O=[N+]([O-])c1ccc(N=NCc2ccccc2)c(F)c1` [2-fluoranyl-4-nitro-N-[(phenylmethylidene)amino]aniline], for which the concentration giving a half-maximal response (EC50) was more than 99 µM. Turning to `CCN(CC)c1ccc(CN=Nc2ccc([N+](=O)[O-])cn2)cc1` [N-[[4-(diethylamino)phenyl]methylideneamino]-5-nitro-pyridin-2-amine], the EC50 is more than 99 µM.

On to `COc1cc(C2c3c(-c4cccs4)n[nH]c3OC(=N)C2C#N)cc(OC)c1O` (stereo not given) [SMR000275523], for which the half-maximal effective concentration (EC50) was more than 99 µM. Compound `Cc1nnc(N2C(=O)C(=O)C(C(=O)c3ccco3)C2c2ccc(C(C)(C)C)cc2)s1` (stereo not given) [2-(4-tert-butylphenyl)-3-(furan-2-carbonyl)-4-hydroxy-1-(5-methyl-1,3,4-thiadiazol-2-yl)-2H-pyrrol-5-one] displayed an EC50 of more than 99 µM. Same read-out and setting: as for `C=c1[nH]n(-c2ccccc2)c(=O)c1=Cc1cc(C)n(C2CC2)c1C` [MLS001018445], the figure is more than 99 µM; as for `Cc1[nH]c2ccccc2c1/C=C1\N=C(c2ccc(F)cc2)OC1=O` [2-(4-fluorophenyl)-4-[(2-methyl-1H-indol-3-yl)methylene]-1,3-oxazol-5(4H)-one], more than 99 µM; as for `CC1(C)CC(=O)C(N=Nc2cc3c(cc2[N+](=O)[O-])OCCO3)C(=O)C1` [SMR000348183], more than 99 µM. Turning to `COc1cc2c(cc1OC)C(CC(=O)c1ccc([N+](=O)[O-])c(C)c1)=NCC2` [(2Z)-2-(6,7-dimethoxy-3,4-dihydro-2H-isoquinolin-1-ylidene)-1-(3-methyl-4-nitrophenyl)ethanone], the half-maximal effective concentration (EC50) is more than 99 µM. On the same count and under the same terms, as for `N#Cc1ccc(-n2c(O)c3[nH][nH]c(C(=O)c4ccc5ccccc5n4)c-3c2=O)cc1` [4-[(3aS,6aS)-4,6-dioxo-3-[oxo(2-quinolinyl)methyl]-3a,6a-dihydro-1H-pyrrolo[3,4-c]pyrazol-5-yl]benzonitrile], the figure is 15.1 µM; as for `O=C1Nc2ccccc2C1=NNc1ccccc1` [3-(phenylhydrazo)-2-indolone], more than 99 µM. Still for that read-out and setting: as for `CCOc1ccc(N=CCC(=O)c2ccc(OC)cc2)c([N+](=O)[O-])c1`, the figure is more than 99 µM; as for `C=CCOc1cccc(C2C(C(=O)c3ccc(C)o3)C(=O)C(=O)N2c2nccs2)c1` (stereo not given) [3-(5-methylfuran-2-yl)carbonyl-4-oxidanyl-2-(3-prop-2-enoxyphenyl)-1-(1,3-thiazol-2-yl)-2H-pyrrol-5-one], 11.4 µM; as for `Cc1ccc(NN=C2C(=O)N(CN3CCOCC3)c3ccccc32)cc1` [(3Z)-3-[(4-methylphenyl)hydrazinylidene]-1-(4-morpholinylmethyl)-2-indolone], 39.4 µM.

`Oc1ccc2ccccc2c1C=Nn1c(O)csc1=S` [MLS002707175] displayed an EC50 of more than 99 µM. On the same count and under the same terms, as for `O=C1C(=O)N(c2nccs2)C(c2ccccc2)C1C(=O)c1cc2ccccc2o1` (stereo not given) [3-(1-benzofuran-2-carbonyl)-4-hydroxy-2-phenyl-1-(1,3-thiazol-2-yl)-2H-pyrrol-5-one], the figure is more than 99 µM; as for `CCC(N=Nc1cccc(C)c1)c1cnnc(SC)n1` (stereo not given) [MLS000705906], more than 99 µM. On the same count and under the same terms, to `Cc1ccc(Cl)c2c1=NC(=O)C=2NNc1ccccc1` belongs 19.1 µM.

As for `N#CC(C(=O)c1ccc([N+](=O)[O-])o1)c1nc2ccccc2[nH]1` (stereo not given), the EC50 was more than 99 µM. In turn, `COc1ccc(C=C2CCCC(C(=O)C(F)(F)F)C2=O)cc1` (stereo not given) [SMR000142699] returned an EC50 of more than 99 µM. Compound `Cc1ccc(S(=O)(=O)N[N-][C+]2CCC(C(C)(C)C)CC2)cc1[N+](=O)[O-]` [SMR000241764] had an EC50 (inactive by the depositor's call) of 52 µM. `Cc1ccc(C2=Nc3nnnn3C(c3ccc(N(C)C)cc3)C2)cc1` (stereo not given) [SMR000092467] showed an EC50 of more than 99 µM. The same measure, in the same setting: to `Cc1cccc(NNC2=c3cc(F)ccc3=NC2=O)c1` [MLS000673317] belongs 38.7 µM; to `CSc1ccc(C2C(C(=O)c3ccco3)C(=O)C(=O)N2c2nnc(SC)s2)cc1` (stereo not given) [3-(furan-2-carbonyl)-4-hydroxy-2-(4-methylsulfanylphenyl)-1-(5-methylsulfanyl-1,3,4-thiadiazol-2-yl)-2H-pyrrol-5-one], more than 99 µM; to `CCCCOc1cccc(C2C(C(=O)c3ccc(C)o3)C(=O)C(=O)N2c2nnc(C)s2)c1` (stereo not given) [2-(3-butoxyphenyl)-3-(5-methylfuran-2-yl)carbonyl-1-(5-methyl-1,3,4-thiadiazol-2-yl)-4-oxidanyl-2H-pyrrol-5-one], more than 99 µM. As to `COc1ccc(N=CCC(=O)c2ccc(C)cc2)cc1OC` [SMR000269732], the EC50 was more than 99 µM. Same read-out and setting: as for `COc1ccc(Nc2oc3cc(=O)ccc-3cc2C(=O)NCC2CCCO2)c(OC)c1` (stereo not given) [2-(2,4-dimethoxyanilino)-7-oxo-N-(2-oxolanylmethyl)-1-benzopyran-3-carboxamide], the figure is more than 99 µM. For the compound `COc1ccc(CN=Nc2ccc([N+](=O)[O-])cc2S(=O)(=O)N2CCN(C)CC2)cc1` [MLS000553953], the EC50 was more than 99 µM. Consider `O=C(c1ccc2ccccc2n1)c1[nH][nH]c2c(O)n(-c3cccc(C(F)(F)F)c3)c(=O)c1-2` [SMR000212847], for which it took 47.9 µM to reach a half-maximal effect (EC50). Still for that read-out and setting: as for `CCSc1nnc(N2C(=O)C(=O)C(C(=O)c3ccco3)C2c2cccc(OC)c2)s1` (stereo not given) [MLS001140620], the figure is more than 99 µM. In turn, `N=C(N)C1=CC(=O)/C(=C/C=c2ccc(=C(N)N)cc2)C=C1` [(4E)-4-[2-[4-[bis(azanyl)methylidene]cyclohexa-2,5-dien-1-ylidene]ethylidene]-3-oxidanylidene-cyclohexa-1,5-diene-1-carboximidamide;2-oxidanylethanesulfonic acid] registered an EC50 of 4.77 µM. The same measure, in the same setting: to `Cc1cc(O)n(-c2ccc(NCc3ccc(Cl)cc3)c([N+](=O)[O-])c2)c1O` [1-{4-[(4-chlorobenzyl)amino]-3-nitrophenyl}-3-methylpyrrolidine-2,5-dione] belongs 96.1 µM; to `CCOC(=O)c1c(NC=C2C(=O)NC(=O)NC2=O)sc2c1CCC2` [ethyl 2-{[(1E)-(2,4,6-trioxohexahydropyrimidin-5-yl)methylene]amino}-5,6-dihydro-4H-cyclopenta[b]thiophene-3-carboxylate], more than 99 µM; to `CCOc1cccc(C2C(C(=O)c3ccc(C)o3)C(=O)C(=O)N2c2nccs2)c1` (stereo not given) [2-(3-ethoxyphenyl)-3-(5-methylfuran-2-yl)carbonyl-4-oxidanyl-1-(1,3-thiazol-2-yl)-2H-pyrrol-5-one], 16.9 µM. Still for that read-out and setting: to `O=C1NC(=O)N(C2CCCCC2)C(=O)C1=CCC=Nc1ccccc1` [(5Z)-5-[(E)-3-anilinoprop-2-enylidene]-1-cyclohexyl-1,3-diazinane-2,4,6-trione] belongs more than 99 µM; to `Cc1ccc(N/N=C2/C(=O)Nc3ccc(F)cc32)cc1` [5-fluoro-3-[2-(4-methylphenyl)hydrazono]indolin-2-one], more than 99 µM. The same measure, in the same setting: to `Cn1c(C(C#N)C(=O)COc2ccc3ccccc3c2)nc2ccccc21` (stereo not given) [(2E)-2-(3-methyl-1H-benzimidazol-2-ylidene)-4-(2-naphthalenyloxy)-3-oxobutanenitrile] belongs more than 99 µM; to `O=[N+]([O-])c1ccc(N=NCc2ccc3c(c2)OCO3)nc1` [N-(1,3-benzodioxol-5-ylmethylideneamino)-5-nitro-pyridin-2-amine], 40.5 µM.

`Cc1ccc2nc(N3C(=O)C(=O)C(C(=O)c4ccco4)C3c3cccs3)sc2c1` (stereo not given) yielded a half-maximal effective concentration (EC50) of more than 99 µM.

In the case of `CCCCN1C(=O)C(=NNc2ccccc2O)c2ccccc21` [(3Z)-1-butyl-3-[(2-hydroxyphenyl)hydrazinylidene]indol-2-one], the midpoint of the response, the EC50, lay at 44.9 µM.

Compound `O=C1N=c2ccccc2=C1NNc1cccc(Cl)c1` [(3E)-1H-indole-2,3-dione 3-[(3-chlorophenyl)hydrazone]] gave a half-maximal effective concentration (EC50) of more than 99 µM.

The compound `CC1CC(=O)C2=C(C1)OC(=N)C(C#N)C2c1coc2ccccc2c1=O` (stereo not given) had an EC50 of more than 99 µM.

The compound `O=C(c1ccc2ccccc2n1)c1[nH][nH]c2c(O)n(-c3cccc(F)c3)c(=O)c1-2` [(3aS,6aS)-5-(3-fluorophenyl)-3-[oxo(2-quinolinyl)methyl]-3a,6a-dihydro-1H-pyrrolo[3,4-c]pyrazole-4,6-dione] showed a concentration for a half-maximal effect (EC50) of 20.5 µM. Consider `Cc1oc(C)c2c(=O)ccc3c(c12)OC(=N)C(C#N)C3c1ccccc1` (stereo not given), for which the EC50 was more than 99 µM. The compound `O=C1N=c2ccc(Br)cc2=C1NNc1ccc(F)cc1` [SMR000564049] yielded an EC50 of more than 99 µM.

Compound `Clc1cccc(C(Cc2nc3ccccc3[nH]2)N=Nc2ccccc2)c1` (stereo not given) [MLS000374846] showed a concentration giving a half-maximal response (EC50) of more than 99 µM.

Regarding `COc1cccc(C2=Nc3nnnn3C(c3ccc(N(C)C)cc3)C2)c1` (stereo not given) [4-[5-(3-methoxyphenyl)-1,7-dihydro-[1,2,3,4]tetrazolo[1,5-a]pyrimidin-7-yl]-N,N-dimethyl-aniline], the EC50 was more than 99 µM. The same measure, in the same setting: to `O=C1N=c2ccccc2=C1NNc1ccc(F)cc1` belongs more than 99 µM; to `CCCN1C(=O)C(=NNc2ccc3ccccc3n2)c2ccccc21` [(3Z)-1-propyl-3-(2-quinolinylhydrazinylidene)-2-indolone], more than 99 µM; to `O=[N+]([O-])c1cc/c(=N\c2ccccc2O)c2no[nH]c1-2` [MLS001206694], more than 99 µM. Same read-out and setting: as for `CCN1C(=O)C(C=NN=Cc2ccccc2)c2ccc(C3=NNC(=O)CC3)cc21` (stereo not given) [benzaldehyde {[1-ethyl-2-oxo-6-(6-oxo-1,4,5,6-tetrahydro-3-pyridazinyl)-1,2-dihydro-3H-indol-3-ylidene]methyl}hydrazone], the figure is more than 99 µM; as for `Cc1[nH]c2ccccc2c1/C=C1\N=C(c2ccc(C(F)(F)F)cc2)OC1=O` [SMR000152363], more than 99 µM; as for `O=C1N=c2ccccc2=C1NNc1ccccc1F`, more than 99 µM. Same read-out and setting: to `CSc1nnc(N2C(=O)C(=O)C(C(=O)c3ccc(C)o3)C2c2ccc(C)cc2)s1` (stereo not given) [SMR000650392] belongs 9.87 µM; to `COCc1n[nH]c2c1C(c1cc(OC)c(O)c(OC)c1)C(C#N)C(=N)O2` (stereo not given) [6-azanyl-4-(3,5-dimethoxy-4-oxidanyl-phenyl)-3-(methoxymethyl)-2,4-dihydropyrano[2,3-c]pyrazole-5-carbonitrile], more than 99 µM; to `O=c1cc2oc(O)c3cc(O)c(O)c(O)c3c-2oc1=O` [6,8,9,10-tetrahydroxypyran[3,2-c]isochromene-2,3-quinone], 80.5 µM.

By EC50 is commonly meant the concentration needed to bring the measured effect to its halfway point. Read a high EC50 as a need for much substance.
